Paper PMC5571359, “Screening the Medicines for Malaria Venture Pathogen Box across Multiple Pathogens Reclassifies Starting Points for Open-Source Drug Discovery” (Antimicrobial Agents and Chemotherapy, 2017)
Like-named read-outs stand apart in the source and are kept apart here.

Experiments:
[1] = system: T. cruzi C4 β-galactosidase reporter parasite in MRC 5SV2 host cells; conditions: cited from earlier work
[2] = system: L. infanium (macrophages); design: method as in Pbox supporting information; conditions: ref Pbox supporting information; cited from earlier work
T. brucei brucei = conditions: ref Pbox supporting information; read-out: T.b. brucei Pbox IC50; cited from earlier work
T. brucei rhodesiense = conditions: ref Pbox supporting information; read-out: T .b. rohdensie Pbox IC50; cited from earlier work
[3] = system: Plasmodium falciparum 3D7 asexual blood stage; assay: microbe, parasite or virus in culture
HEK293 cells = assay: HEK293 resazurin cell cytotoxicity assay; conditions: Homo sapiens
[4] = system: T. b. brucei 427 bloodstream trypanosomes; assay: T. b. brucei resazurin viability assay; assay type: cell-based, Trypanosoma brucei brucei; conditions: Trypanosoma brucei
HepG2 = conditions: cited from earlier work; for CC50: read-out: HepG2 PBox CC50 µM, HepG2 CC50, ref Pathogen Box supporting information
[5] = system: L. donovani MHOM/IN/80/DD8 intracellular amastigotes; assay: Leishmania donovani intracellular amastigote assay in THP-1 cells; assay type: cell-based; conditions: Leishmania donovani, THP-1; intracellular amastigotes; some values marked *; read-out: L, donovani Discovery Biology IC50
[6] = system: NF54-pfs16-LUC-GFP stage IV gametocytes; assay: Plasmodium falciparum late stage gametocyte (LSG) image-based assay; assay type: cell-based; conditions: for IC50: Plasmodium falciparum
[7] = system: P. falciparum stage V gametocytes; conditions: cited from earlier work; for activity against gametocytes (stage V), PBox supporting information: ref Pbox supporting information; for IC50: read-out: PF stage V GAMS PBox IC50
P. falciparum ABS = conditions: cited from earlier work; for IC50: read-out: Pf 3D7 Pbox IC50; for EC50: ChEMBL Data
liver stage = conditions: cited from earlier work; for IC50: liver stage, ref Pathogen Box supporting information, read-out: LIVER STAGE Pbox IC50
[8] = system: T. cruzi intracellular amastigotes; assay: Intracellular anti-Trypanosoma cruzi image-based assay (amastigotes); assay type: cell-based
[9] = ref Pbox supporting information, read-out: T. cruzi Pbox IC50
[10] = 3D7, read-out: Antiplasmodial IC50 (ABS), PBox compounds, P. falciparum 3D7
[11] = HEK293, read-out: HEK % Inhibition 20uM/IC50 Discovery Biology
[12] = read-out: T b.brucei Discovery Biology IC50
[13] = HepG2, ref PBox supporting information
[14] = NF54, read-out: Pf Stage IV GAMS Discovery Biology IC50 µM, stage IV gametocytes
[15] = stage V gametocytes, ref PBox supporting information
[16] = P. falciparum 3D7, ref PBox supporting information
[17] = HEK293, read-out: HEK % Inhibition 20uM/IC50 Discovery Biology (IA)
[18] = stage V gametocytes, ref Pathogen Box supporting information
[19] = NITD, read-out: NITD (ref 94) EC50
[20] = Pf 3D7, ref Pathogen Box supporting information
[21] = TCMDC, read-out: TCMDC (ref 93) EX50
[22] = NF54, read-out: Pf Stage IV GAMS Discovery Biology IC50 µM, stage IV gametocytes, Discovery Biology
[23] = 3D7, read-out: Pf 3D7 Discovery Biology IC50 µM, P. falciparum 3D7 asexual blood stage, Discovery Biology

Compound: O=C(Nc1ccc2c(c1)B(O)OC2)c1ccccc1C(F)(F)F [MMV652003]
- IC50 [1, 9]: 270 nM
- IC50 [2]: 1410 nM
- IC50 (T. brucei brucei): 150 nM
- IC50 (T. brucei rhodesiense): 230 nM
- IC50 [3, 10]: 0.92 µM
- inhibition at 20 µM (HEK293 cells; [11]): 78%
- IC50 [4, 12]: 110 nM
- HepG2 PBox CC20 (HepG2; [13]): 400 nM
- IC50 [5]: 1250 nM

Compound: O=C(Nc1nc(-c2ccccn2)cs1)C1CC1c1ccccc1F (centres unmarked) [MMV1028806]
- activity in the Discovery Biology stage IV gametocyte (LSG) assay [6]: demonstrate activity
- IC50 [6, 14]: 0.42 µM
- activity against gametocytes (stage V), PBox supporting information [7]: demonstrate activity
- IC50 [7, 15]: 520 nM
- IC50 (P. falciparum ABS; [16]): > 2000 nM
- IC50 (HEK293 cells; [17]): > 20000 nM

Compound: Cc1ccc(NC(=O)c2nc[nH]c2C(=O)Nc2nc3ccccc3[nH]2)c(C)c1 [MMV011903]
- IC50 (liver stage): > 10000 nM
- IC50 [7, 18]: > 8300 nM
- EC50 (P. falciparum ABS; [19]): 730 nM
- IC50 (P. falciparum ABS; [20]): 360 nM
- CC50 (HepG2): > 10 µM

Compound: CN(C)c1cc(NC(=O)Nc2ccccc2)c2ccccc2n1 [MMV006901]
- IC50 (liver stage): > 10000 nM
- activity in the Discovery Biology stage IV gametocyte (LSG) assay [6]: only moderately active
- IC50 [7, 18]: 3130 nM
- EC50 (P. falciparum ABS; [19]): 150 nM
- EC50 (P. falciparum ABS; [21]): 410 nM
- IC50 (P. falciparum ABS; [20]): 600 nM
- IC50 ([4]; PBox compounds, read-out: IC50 T. brucei brucei (Discovery Biology)): 3360 nM
- CC50 (HepG2): > 10 µM

Compound: CCCn1c(NC(=O)c2ccc3ccccc3n2)nc2ccccc21 [MMV1030799]
- activity in the Discovery Biology stage IV gametocyte (LSG) assay [6]: demonstrate activity
- IC50 [6, 14]: 2.5 µM
- activity against gametocytes (stage V), PBox supporting information [7]: demonstrate activity
- IC50 [7, 15]: 560 nM
- IC50 (P. falciparum ABS; [16]): > 2000 nM
- IC50 ([3]; 3D7, read-out: Pf 3D7 Discovery Biology IC50 µM, P. falciparum 3D7 asexual blood stage): 2.59 µM
- IC50 (HEK293 cells; [17]): > 20000 nM

Compound: O=C(NCCN1CCCC1)c1cc(NCCCCN2CCC(F)(F)CC2)nc2ccc(Cl)cc12 [MMV667494]
- LIVER STAGE Pbox IC50 µM (liver stage; ref Pbox supporting information): KTBA
- IC50 [6, 14]: 0.12 µM
- PF stage V GAMS PBox IC50 µM [7, 15]: KTBA
- IC50 (P. falciparum ABS; [16]): 7 nM
- IC50 ([3]; 3D7, read-out: Pf 3D7 Discovery Biology IC50, P. falciparum 3D7 asexual blood stage, nM): < 0.01 µM
- IC50 (HEK293 cells; [17]): > 20000 nM

Compound: CNC(=O)c1nn(C)c2c1C(C)(C)Cc1cnc(Nc3ccc(N4CCN(C)CC4)cc3)nc1-2 [MMV676602]
- IC50 [1, 9]: 1050 nM
- IC50 [2]: 850 nM
- IC50 (T. brucei brucei): < 130 nM
- IC50 (T. brucei rhodesiense): < 130 nM
- IC50 ([3]; 3D7, read-out: Pf 3D7 Discovery Biology IC50, P. falciparum 3D7 asexual blood stage): 3.17 µM
- IC50 (HEK293 cells; HEK293, read-out: HEK % Discovery Biology IC50): 1300 nM
- IC50 [4, 12]: 170 nM
- HepG2 PBox CC20 (HepG2): <260 nM
- IC50 [5]: 1430 nM

Compound: COc1ccc(-c2cnc3ccc(NCc4ccc(S(N)(=O)=O)cc4)nn23)cn1 [MMV010545]
- IC50 (liver stage): 6800 nM
- IC50 [6, 22]: 1.17 µM
- IC50 [7, 18]: 1030 nM
- EC50 (P. falciparum ABS; [21]): 870 nM
- IC50 (P. falciparum ABS; [20]): 490 nM
- IC50 [3, 23]: 0.58 µM
- CC50 (HepG2): > 10 µM

Compound: Cc1ccc(-c2nc(CN(Cc3ccccn3)C(C)C)cs2)o1 [MMV1088520]
- IC50 [6, 14]: 0.67 µM
- IC50 [7, 15]: 450 nM
- IC50 (P. falciparum ABS; [16]): > 2000 nM
- inhibition at 20 µM (HEK293 cells; [11]): 79%

Compound: N=C(N)Nc1ccc(-c2ccc(-c3ccc(NC(=N)N)c(Cl)c3)o2)cc1Cl [MMV688271]
- activity against T. cruzi in the Discovery Biology assay [8]: lack of activity
- activity against T. cruzi at 8 μM in the Discovery Biology assay ([8]; 8 μM): no activity
- IC50 ([1]; 7 days exposure, ref PBox supporting information, read-out: T. cruzi IC50 in the PBox supporting information file): < 1000 nM
- IC50 [1, 9]: 660 nM
- IC50 [2]: 10200 nM
- IC50 (T. brucei brucei): 600 nM
- IC50 (T. brucei rhodesiense): 200 nM
- IC50 [3, 10]: 1.21 µM
- IC50 (HEK293 cells; [11]): > 20000 nM
- IC50 [4, 12]: 520 nM
- HepG2 PBox CC20 (HepG2; [13]): 13500 nM
- IC50 [5]: 3310 nM

Compound: COc1ccc(-c2cnc3ccc(N4CCCC4)nn23)cc1OC [MMV023985]
- IC50 (liver stage): 630 nM
- IC50 [6, 22]: 5.83 µM
- IC50 [7, 18]: 410 nM
- EC50 (P. falciparum ABS; [21]): 770 nM
- IC50 (P. falciparum ABS; [20]): 700 nM
- IC50 [3, 23]: 1.99 µM
- CC50 (HepG2): > 10 µM
